# Read-outs that look alike come from different tables or passages of the source.
# Experiments:
# MiaPaCa-2 cells = test: MiaPaCa-2 cell proliferation, IncuCyte live-cell imaging (cell confluence); format: cell-based, human; conditions: for IC50: Homo sapiens; for antiproliferative effect compared with corresponding Mito-ATO analog: MiaPaCa-2 cells, controls lacking TPP+ (FIG. 9)
# Text: FIG. 1. […] (A) Chemical structures of ATO and Mito-ATO analogs. […] Cell proliferation was monitored in real-time with the continuous presence of indicated treatments until the end of each experiment. […] Dashed lines represent the fitting curves used to determine their IC50 values as indicated.
# (§1) The IncuCyte Live-Cell Imaging system (IncuCyte Essen Bioscience Inc., Ann Arbor, MI) was used to monitor cell proliferation.^11-13 As shown in previous publications,^11,12 this imaging system is probe-free and noninvasive, and enables continuous monitoring of cell confluence over several days. The increase in the percentage of cell confluence was used as a surrogate marker of cell proliferation. In a 96-well plate, cells were plated at 1,000 cells per well in triplicates and left to adhere overnight.
# MiaPaCa-2 and A549 cells = test: Cellular uptake by LC-MS/MS; format: cell-based, human; conditions: Mito10-ATO 0.1 and 1 μM, ATO 1-10 μM; 1, 2, 4 and 24 h
# Experimental: The compounds were extracted according to the published experimental protocol.^11,12 Briefly, cells were washed twice with ice-cold DPBS (Dulbecco's Phosphate Buffered Saline) and harvested. The cell pellet was immediately frozen in liquid nitrogen and stored at −80° C. For the extraction, the pellet was homogenized in 200 μl DPBS (2 μl were taken for protein assay) and extracted twice with a dichloromethane:methanol (2:1) mixture. The organic layers were combined and dried using a SpeedVac concentrator (Thermo Fisher Scientific, Waltham MA). The dry residue was dissolved in ice-cold methanol and taken for LC-MS/MS analysis. LC-MS/MS analyses were performed using a Kinetex Phenyl-Hexyl column (50 mm×2.1 mm, 1.7 μm; Phenomenex, Torrance, CA) equilibrated with a water:acetonitrile mixture (4:1) containing 0.1% formic acid. Compounds were eluted by increasing the content of acetonitrile from 20% to 100% over 4 min and detected using the MRM (multiple reaction monitoring) mode.
# [1] = test system: CD4+ T cells from SMARTA triple reporter mice; test: In vitro differentiation of CD4+ T regulatory cells, flow cytometry; format: cell-based, mouse; conditions: for Treg (FoxP3+CD25+) differentiation and/or survival: six days culture with TGFβ and IL-2, ATO, butyl-ATO, decyl-ATO up to 60 μM; for Teff cell IFNγ production: six days culture, IFNγ-GFP positive cells within live CD4+ T cells
# Text: FIG. 5. In vitro differentiation of CD4^+ T regulatory cells under varying concentrations of Mito-ATOs and controls. After six days of culture, cells were stained for flow cytometry analysis. (left) Live/dead staining to assess the percentage of live CD4+ T cells within the lymphocyte gate. (middle) Teff cell function is shown as the frequency of IFNγ-GFP positive cells within the live CD4^+ T cells. (right) The percentage of Treg cells is shown as the frequency of FoxP3^+CD25^+ cells within the live CD4^+ T cells.
# After six days, cells were stained to assess viability, phenotype, and function using the flow cytometry.
# Mice. SMARTA triple reporter mice were generated in the following manner. First, IL-10 and IL-21 double-reporter mice^33 were generated by cross-breeding IL-21tRFP mice^34-35 with 10 BiT mice (kindly provided by Dr. Casey Weaver, University of Alabama at Birmingham). Double reporter mice were then crossed with GREAT (interferon-gamma reporter with endogenous polyA transcript) mice^36 from Jackson Laboratory (Stock No. 017581). These triple-reporter mice were then crossed with SMARTA mice^37 (kindly provided by Dr. Dorian McGavern, National Institutes of Health). Mice were bred and maintained in a closed breeding facility, and mouse handling conformed to the requirements of the Medical College of Wisconsin Institutional Animal Care and Use Committee guidelines. All experimental protocols were approved by the Medical College of Wisconsin Institutional Animal Care and Use Committee.
# Cell culture. To differentiate CD4^+ T cells into a T regulatory cell phenotype, splenocytes from SMARTA triple-reporter mice were processed and the red blood cell lysed using an ACK (ammonium-chloride-potassium) lysis buffer. The cells were then activated with 1 μg/mL […] peptide (GenScript, Piscataway, NJ) and 5 ng/mL TGF-β1 (Shenandoah Biotechnology, Inc., Warwick, PA). […] Cells were cultured for six days and split once cells reached confluency; cells were replenished with IL-2 and compound accordingly. After six days in culture, cells were stained to assess the viability and phenotypic analysis via flow cytometry. LIVE/DEAD fixable violet or aqua dead cell stain (Invitrogen, Carlsbad, CA) was used to assess cell viability. The following antibodies were used for flow cytometry staining: PercP anti-mouse CD4 (clone: GK1.5; BioLegend, San Diego, CA), APC/Cy7 anti-mouse CD25 (clone: PC61; BioLegend), and PE anti-mouse FOXP3 (clone: FJK-16S; eBioscience, San Diego, CA). Flow cytometry data were acquired using a BD LSRII (BD Biosciences, CA) flow cytometer and analysed using FlowJo (Treestar, Inc., Ashland, OR).
# cyt bc1 [2] = conditions: P. falciparum, Y265S mutations (so in the source); cited from earlier work
# cyt bc1 [3] = molecular target: cyt bc1 (Homo sapiens, UniProt P00156); conditions: mammalian cells; cited from earlier work
# mitochondrial complex I [4] = molecular target: mitochondrial complex I (Homo sapiens, UniProt O75251+O75306+P03886); test: Mitochondrial complex I-driven oxygen consumption rate (Seahorse XF96) in permeabilized MiaPaCa-2 cells; format: cell-based; conditions: 24 h treatment
# Experimental: FIG. 2. […] Relative complex I (1.5 mM malate, 10 mM pyruvate, 10 mM ADP)-driven OCR (left) and relative complex III (0.5 mM duroquinol, 10 mM ADP)-driven OCR (right) were monitored by XF-96 analyser. Either Rot (complex I inhibitor) or antimycin A (AA, complex III inhibitor) was acutely added and OCR assayed immediately. […] Dashed lines represent the fitting curves used for determination of the IC50 values.
# (§2) Briefly, cells that were intact after treatments were immediately permeabilized using the Seahorse XF Plasma Membrane Permeabilizer (Agilent). The mitochondrial complex I-driven OCR was assayed in mannitol and sucrose buffer^31 containing 10 mM pyruvate and 1.5 mM malate (substrates for complex I) and 10 mM malonate (which inhibits complex II activities). The mitochondrial complex III-driven OCR was assayed in mannitol and sucrose buffer containing 0.5 mM duroquinol (substrate for complex III) and 1 μM Rot and 10 mM malonate (which inhibit both complex I and II activities). The mitochondrial complex-dependent oxygen consumption (calculated as Rot- or antimycin A-inhibitable OCR equals basal OCR less OCR after Rot or antimycin A injection) was plotted against concentrations to determine the IC50 values.
# [5] = molecular target: T1, mitochondrial complex III (Homo sapiens, UniProt P00156+P47985); test: Mitochondrial complex III-driven oxygen consumption rate (Seahorse XF96) in permeabilized MiaPaCa-2 cells; format: cell-based; conditions: 24 h treatment
# T1 construct: endogenous in cells; host or cells: MiaPaCa-2
# Experimental: FIG. 2. Effects of Mito-ATO analogs on the oxygen consumption induced by mitochondrial complexes I and III. […] MiaPaCa-2 cells were treated with Mito-ATO for 24 h. Relative complex I (1.5 mM malate, 10 mM pyruvate, 10 mM ADP)-driven OCR (left) and relative complex III (0.5 mM duroquinol, 10 mM ADP)-driven OCR (right) were monitored by XF-96 analyser. Either Rot (complex I inhibitor) or antimycin A (AA, complex III inhibitor) was acutely added and OCR assayed immediately. […] Dashed lines represent the fitting curves used for determination of the IC50 values. (n.a., not applicable).
# The mitochondrial complex activities were assessed by measuring the oxygen consumption rate (OCR) using the Seahorse technique.^6,11-4 MiaPaCa-2 cells were treated separately with Mito-ATO analogs at different concentrations for 24 h and OCR was measured.
# as §2, with “Mitochondrial bioenergetic function was measured in real time using the Seahorse XF 96 Extracellular Flux Analyzer (Agilent, North Billerica, MA).^11-13,22 The OCR-based assessment of mitochondrial complex activities was carried out on acutely permeabilized cells in the presence of different mitochondrial substrates, i.e., pyruvate/malate, for complex I and duroquinol for complex III.^11,14,31,32 Rot, malonate, and antimycin A (Sigma-Aldrich, St. Louis, MO) were used as specific inhibitors of mitochondrial complexes I, II, and III, respectively. Briefly,” for “Briefly,”
# [6] = test system: A549 human lung cancer cells; test: A549 cell proliferation, IncuCyte; format: cell-based
# Text: (§3) FIG. 3. […] Cell proliferation was monitored in real-time with the continuous presence of indicated treatments until the end of each experiment. The cell confluence (as control groups reach 98% confluency) is plotted against concentration. Dashed lines represent the fitting curves used to determine the IC50 values as indicated.
# as §1
# [7] = test system: MDA-MB-231 human breast cancer cells; test: MDA-MB-231 cell proliferation, IncuCyte; format: cell-based; conditions: MDA-MB-231 cells
# Text: as §3, §1
# [8] = test system: LLC mouse lung cancer cells; test: LLC cell proliferation, IncuCyte; format: cell-based
# Text: as §3, §1
# [9] = test system: LKR13 mouse lung cancer cells; test: LKR13 cell proliferation, IncuCyte; format: cell-based
# Text: as §3, §1
# mitochondrial complex I [10] = test: Complex I-driven OCR in A549, LLC and LKR13 cells; format: cell-based, human, mouse; conditions: A549, LLC, LKR13 cells (FIG. 4)
# Experimental: (§4) FIG. 4. […] Dashed lines represent the fitting curves used for determination of the IC50 values.
# (§5) Mitochondrial bioenergetic function was measured in real time using the Seahorse XF 96 Extracellular Flux Analyzer (Agilent, North Billerica, MA).^11-13,22 The OCR-based assessment of mitochondrial complex activities was carried out on acutely permeabilized cells in the presence of different mitochondrial substrates, i.e., pyruvate/malate, for complex I and duroquinol for complex III.^11,14,31,32 Rot, malonate, and antimycin A (Sigma-Aldrich, St. Louis, MO) were used as specific inhibitors of mitochondrial complexes I, II, and III, respectively. Briefly, cells that were intact after treatments were immediately permeabilized using the Seahorse XF Plasma Membrane Permeabilizer (Agilent). The mitochondrial complex I-driven OCR was assayed in mannitol and sucrose buffer^31 containing 10 mM pyruvate and 1.5 mM malate (substrates for complex I) and 10 mM malonate (which inhibits complex II activities). […] The mitochondrial complex-dependent oxygen consumption (calculated as Rot- or antimycin A-inhibitable OCR equals basal OCR less OCR after Rot or antimycin A injection) was plotted against concentrations to determine the IC50 values.
# [11] = test system: mitochondrial complex III; test: Complex III-driven OCR in A549, LLC and LKR13 cells; format: cell-based, human, mouse; conditions: A549, LLC, LKR13 cells (FIG. 4)
# Experimental: as §4, §5
# mitochondrial complex I (Homo sapiens, UniProt O75251+O75306+P03886), sequence (O75306 34-463): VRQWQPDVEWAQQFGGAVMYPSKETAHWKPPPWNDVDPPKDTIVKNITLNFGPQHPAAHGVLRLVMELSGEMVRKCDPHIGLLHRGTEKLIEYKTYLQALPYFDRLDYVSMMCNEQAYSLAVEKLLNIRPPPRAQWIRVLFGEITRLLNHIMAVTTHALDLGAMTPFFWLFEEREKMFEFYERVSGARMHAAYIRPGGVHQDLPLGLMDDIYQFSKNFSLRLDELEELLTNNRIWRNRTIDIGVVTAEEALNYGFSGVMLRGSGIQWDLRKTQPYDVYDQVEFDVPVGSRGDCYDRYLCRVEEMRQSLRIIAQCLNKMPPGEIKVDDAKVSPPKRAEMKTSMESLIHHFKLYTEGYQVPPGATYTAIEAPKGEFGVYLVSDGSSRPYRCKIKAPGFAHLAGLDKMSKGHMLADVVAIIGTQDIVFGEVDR
# mitochondrial complex I (Homo sapiens, UniProt O75251+O75306+P03886), sequence (O75251 39-213): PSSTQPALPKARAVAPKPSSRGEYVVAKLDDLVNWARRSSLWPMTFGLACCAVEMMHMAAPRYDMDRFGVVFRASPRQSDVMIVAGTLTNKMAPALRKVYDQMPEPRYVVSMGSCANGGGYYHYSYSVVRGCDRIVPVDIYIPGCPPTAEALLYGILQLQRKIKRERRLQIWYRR
# mitochondrial complex I (Homo sapiens, UniProt O75251+O75306+P03886), sequence (P03886 whole entry): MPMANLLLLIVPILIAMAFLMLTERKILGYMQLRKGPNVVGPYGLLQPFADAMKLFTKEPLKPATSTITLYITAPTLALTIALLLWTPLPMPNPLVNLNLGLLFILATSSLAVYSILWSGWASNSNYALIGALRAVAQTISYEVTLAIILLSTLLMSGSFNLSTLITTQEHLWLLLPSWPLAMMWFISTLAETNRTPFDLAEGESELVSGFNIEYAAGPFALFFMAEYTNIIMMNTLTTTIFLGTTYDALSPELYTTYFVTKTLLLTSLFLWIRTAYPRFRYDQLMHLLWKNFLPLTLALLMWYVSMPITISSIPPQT
# cyt bc1 (Homo sapiens, UniProt P00156), sequence (P00156 whole entry): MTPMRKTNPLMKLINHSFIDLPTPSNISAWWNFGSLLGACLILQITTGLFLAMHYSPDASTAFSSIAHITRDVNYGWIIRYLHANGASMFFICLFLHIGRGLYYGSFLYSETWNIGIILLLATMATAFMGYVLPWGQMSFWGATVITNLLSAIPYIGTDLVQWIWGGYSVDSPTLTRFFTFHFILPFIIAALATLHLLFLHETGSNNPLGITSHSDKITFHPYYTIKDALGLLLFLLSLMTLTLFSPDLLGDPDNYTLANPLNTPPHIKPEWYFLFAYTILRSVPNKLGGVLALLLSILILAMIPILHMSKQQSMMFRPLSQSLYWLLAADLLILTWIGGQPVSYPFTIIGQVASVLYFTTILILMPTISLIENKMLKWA
smiles,measurement,setting,value
"O=C1C(O)=C([C@H]2CC[C@H](c3ccc(Cl)cc3)CC2)C(=O)c2ccccc21 [ATO, trans-2-[4-(4-chlorophenyl)cyclohexyl]-3-hydroxy-1,4-naphthalene-dione]",IC50,"MiaPaCa-2 cells; MIA PaCa-2, read-out: IC50, inhibition of cell proliferation (cell confluence)",18000 nM
same,cellular uptake / intracellular accumulation,MiaPaCa-2 and A549 cells,uptake was considerably lower and did not accumulate in cancer cells over a 24 h period
same,Treg (FoxP3+CD25+) differentiation and/or survival,[1],did not inhibit Treg differentiation and/or survival
same,increase in IC50 for ATO caused by mutation at Q0 site,cyt bc1 [2],"~9,000 fold"
same,IC50 for inhibition of cyt bc1,cyt bc1 [3],micromolar range
"CCCCOC1=C([C@H]2CC[C@H](c3ccc(Cl)cc3)CC2)C(=O)c2ccccc2C1=O [Butyl-ATO, reference compound]",antiproliferative effect compared with corresponding Mito-ATO analog,MiaPaCa-2 cells,much less effective than their corresponding Mito-ATO analogs
same,Treg (FoxP3+CD25+) differentiation and/or survival,[1],did not inhibit Treg differentiation and/or survival
"CCCCCCCCCCOC1=C([C@H]2CC[C@H](c3ccc(Cl)cc3)CC2)C(=O)c2ccccc2C1=O [Decyl-ATO, reference compound]",antiproliferative effect compared with corresponding Mito-ATO analog,MiaPaCa-2 cells,much less effective than their corresponding Mito-ATO analogs
same,Treg (FoxP3+CD25+) differentiation and/or survival,[1],did not inhibit Treg differentiation and/or survival
O=C1C(OCCCC[P+](c2ccccc2)(c2ccccc2)c2ccccc2)=C([C@H]2CC[C@H](c3ccc(Cl)cc3)CC2)C(=O)c2ccccc21 [Mito4-ATO],inhibition of complex I-induced oxygen consumption,mitochondrial complex I [4],potently inhibit
same,inhibition of complex III-induced oxygen consumption,[5],potently inhibit
same,Treg (FoxP3+CD25+) differentiation and/or survival,[1],inhibited Foxp3^+ Treg differentiation and/or survival
same,Teff cell IFNγ production,[1],promoted Teff cell IFNγ production in a dose-dependent manner
O=C1C(OCCCCCCCCCC[P+](c2ccccc2)(c2ccccc2)c2ccccc2)=C([C@H]2CC[C@H](c3ccc(Cl)cc3)CC2)C(=O)c2ccccc21 [Mito10-ATO],inhibition of complex I-induced oxygen consumption,mitochondrial complex I [4],potently inhibit
same,inhibition of complex III-induced oxygen consumption,[5],potently inhibit
same,IC50,"[5]; duroquinol, antimycin A-inhibitable OCR, read-out: IC50 to inhibit oxygen consumption by complex III",780 nM
same,cellular uptake / intracellular accumulation,MiaPaCa-2 and A549 cells,accumulated inside the cells with time
same,effect on cell proliferation,[6],effective at halting cell proliferation
same,effect on cell proliferation,[7],effective at halting cell proliferation
same,effect on cell proliferation,[8],effective at halting cell proliferation
same,effect on cell proliferation,[9],effective at halting cell proliferation
same,inhibition of complex I-induced oxygen consumption,mitochondrial complex I [10],inhibited both mitochondrial complex I- and III-induced oxygen consumption
same,inhibition of complex III-induced oxygen consumption,[11],inhibited both mitochondrial complex I- and III-induced oxygen consumption
same,Treg (FoxP3+CD25+) differentiation and/or survival,[1],inhibited Foxp3^+ Treg differentiation and/or survival
same,Teff cell IFNγ production,[1],promoted Teff cell IFNγ production in a dose-dependent manner
O=C1C(OCCCCCCCCCCCC[P+](c2ccccc2)(c2ccccc2)c2ccccc2)=C([C@H]2CC[C@H](c3ccc(Cl)cc3)CC2)C(=O)c2ccccc21 [Mito12-ATO],IC50,"MiaPaCa-2 cells; MIA PaCa-2, MiaPaCa-2 pancreatic cancer cells, continuous treatment, read as control reaches 98% confluency, read-out: IC50, inhibition of cell proliferation (cell confluence)",350 nM
same,inhibition of complex I-induced oxygen consumption,mitochondrial complex I [4],inhibited only the complex I-induced oxygen consumption
same,inhibition of complex III-induced oxygen consumption,[5],did not inhibit
same,Treg (FoxP3+CD25+) differentiation and/or survival,[1],did not appreciably inhibit Treg differentiation
O=C1C(OCCCCCCCCCCCCCCCC[P+](c2ccccc2)(c2ccccc2)c2ccccc2)=C([C@H]2CC[C@H](c3ccc(Cl)cc3)CC2)C(=O)c2ccccc21 [Mito16-ATO],inhibition of complex I-induced oxygen consumption,mitochondrial complex I [4],inhibited only the complex I-induced oxygen consumption
same,inhibition of complex III-induced oxygen consumption,[5],did not inhibit

# Source: US12594283B2 (The Medical College of Wisconsin, Inc., priority 2019, dated 2026)
